Experimental data from ChEMBL document CHEMBL3124915, “One-step semisynthesis of oleacein and the determination as a 5-lipoxygenase inhibitor” (J Nat Prod, 2014).

Key:
[1] = target: T1, Polyunsaturated fatty acid 5-lipoxygenase (Homo sapiens) (UniProt P09917); assay: Inhibition of human recombinant 5-lipoxygenase expressed in Escherichia coli Bl21 (DE3) using arachidonic acid as substrate preincubated at 10 uM for 10 mins before substrate addition measured after 10 mins by HPLC analysis
T1 sequence (whole entry): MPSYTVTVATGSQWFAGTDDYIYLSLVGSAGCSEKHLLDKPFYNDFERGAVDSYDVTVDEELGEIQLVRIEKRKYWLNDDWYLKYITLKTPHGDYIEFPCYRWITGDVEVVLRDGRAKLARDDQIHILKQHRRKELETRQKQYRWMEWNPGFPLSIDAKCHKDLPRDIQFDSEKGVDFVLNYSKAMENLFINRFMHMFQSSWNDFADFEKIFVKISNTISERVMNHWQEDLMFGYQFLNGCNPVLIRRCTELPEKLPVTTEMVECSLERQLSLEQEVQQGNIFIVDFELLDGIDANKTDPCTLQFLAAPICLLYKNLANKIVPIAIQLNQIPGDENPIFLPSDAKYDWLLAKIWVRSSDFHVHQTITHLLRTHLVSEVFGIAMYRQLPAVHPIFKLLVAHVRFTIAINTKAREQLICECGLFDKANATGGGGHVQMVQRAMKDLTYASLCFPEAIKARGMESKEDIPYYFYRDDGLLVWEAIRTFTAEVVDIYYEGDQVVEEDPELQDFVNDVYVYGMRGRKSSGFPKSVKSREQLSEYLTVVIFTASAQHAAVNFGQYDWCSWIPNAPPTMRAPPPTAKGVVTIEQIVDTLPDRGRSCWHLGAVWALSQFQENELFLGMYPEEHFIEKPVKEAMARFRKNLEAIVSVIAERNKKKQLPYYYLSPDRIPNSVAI

[2] = target: T2, Polyunsaturated fatty acid 5-lipoxygenase (Homo sapiens, UniProt P09917); assay: Inhibition of human recombinant 5-lipoxygenase using arachidonic acid as substrate preincubated for 10 mins before substrate addition measured after 10 mins by HPLC analysis
T2 sequence (P09917 whole entry): T1 sequence (whole entry)

Structure (SMILES)	inhibition [1]	IC50 [2]
C/C=C(/C=O)[C@@H](CC=O)CC(=O)OCCc1ccc(O)cc1	48%	
OCCc1ccc(O)c(O)c1 [HYDROXYTYROSOL]	48%	13 µM
OCCc1ccc(O)cc1	20%	
C/C=C1/[C@H](O[C@@H]2O[C@H](CO)[C@@H](O)[C@H](O)[C@H]2O)OC=C(C(=O)OC)[C@H]1CC(=O)OCCc1ccc(O)c(O)c1	35%	
C/C=C(/C=O)[C@@H](CC=O)CC(=O)OCCc1ccc(O)c(O)c1	90%	2 µM
